From the supplement of paper PMC10307832

Assays:
Experiment in all cases: relative viability (nuclei count vs DMSO), 5 days (fraction); higher = more cells survive
[1] = test system: NCI-H2405
In short: (§1)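 Lung cancer cell lines in 1536-well plates got either a single drug or a fixed anchor-drug dose together with five library-drug doses (not always all listed) in √10 steps, by pin tool, on the day after seeding. Nuclei were counted after 5 days, and relative viability is the treated-to-vehicle ratio of nuclei counts. Values are medians of duplicate plates.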

[2] = test system: NCI-H2126
In short: as §1

[3] = test system: SK-LU-1
In short: as §1

[4] = test system: NCI-H1944
In short: as §1

[5] = test system: HCC-15
In short: as §1

[6] = test system: HARA
In short: as §1

[7] = test system: NCI-H2228
In short: as §1

[8] = test system: LC-2-ad
In short: as §1

[9] = test system: ABC-1
In short: as §1

[10] = test system: NCI-H23
In short: as §1

[11] = test system: COR-L23
In short: as §1

[12] = test system: ChaGo-K-1
In short: as §1

[13] = test system: NCI-H358
In short: as §1

[14] = test system: NCI-H1793
In short: as §1

[15] = test system: HCC-366
In short: as §1

[16] = test system: NCI-H1395
In short: as §1

[17] = test system: HCC-78
In short: as §1

[18] = test system: EMC-BAC-2
In short: as §1

[19] = test system: NCI-H1993
In short: as §1

[20] = test system: NCI-H838
In short: as §1

[21] = test system: HOP-62
In short: as §1

[22] = test system: NCI-H2023
In short: as §1

O=c1cc(N2CCOCC2)oc2c(-c3cccc4c3sc3ccccc34)cccc12 + CS(=O)(=O)N1CCN(Cc2cc3nc(-c4cccc5[nH]ncc45)nc(N4CCOCC4)c3s2)CC1 [Pictilisib] (partner 1 µM)
relative viability ([1]; first compound 0.01 µM): 0.397 | relative viability ([1]; first compound 0.03162 µM): 0.513 | relative viability ([1]; first compound 0.1 µM): 0.443 | relative viability ([1]; first compound 0.3162 µM): 0.533 | relative viability ([1]; first compound 1 µM): 0.443 | relative viability ([2]; first compound 0.01 µM): 0.471 | relative viability ([2]; first compound 0.03162 µM): 0.449 | relative viability ([2]; first compound 0.1 µM): 0.529 | relative viability ([2]; first compound 0.3162 µM): 0.517 | relative viability ([2]; first compound 1 µM): 0.479 | relative viability ([3]; first compound 0.01 µM): 0.609 | relative viability ([3]; first compound 0.03162 µM): 0.604 | relative viability ([3]; first compound 0.1 µM): 0.527 | relative viability ([3]; first compound 0.3162 µM): 0.481 | relative viability ([3]; first compound 1 µM): 0.587 | relative viability ([4]; first compound 0.01 µM): 0.349 | relative viability ([4]; first compound 0.03162 µM): 0.336 | relative viability ([4]; first compound 0.1 µM): 0.349 | relative viability ([4]; first compound 0.3162 µM): 0.348 | relative viability ([4]; first compound 1 µM): 0.35 | relative viability ([5]; first compound 0.01 µM): 0.66 | relative viability ([5]; first compound 0.03162 µM): 0.74 | relative viability ([5]; first compound 0.1 µM): 0.939 | relative viability ([5]; first compound 0.3162 µM): 0.774 | relative viability ([5]; first compound 1 µM): 0.714 | relative viability ([6]; first compound 0.01 µM): 0.315 | relative viability ([6]; first compound 0.03162 µM): 0.381 | relative viability ([6]; first compound 0.1 µM): 0.435 | relative viability ([6]; first compound 0.3162 µM): 0.362 | relative viability ([6]; first compound 1 µM): 0.457 | relative viability ([7]; first compound 0.03162 µM): 0.351 | relative viability ([7]; first compound 0.1 µM): 0.668 | relative viability ([7]; first compound 0.3162 µM): 0.39 | relative viability ([7]; first compound 1 µM): 0.512 | relative viability ([8]; first compound 0.01 µM): 0.39 | relative viability ([8]; first compound 0.1 µM): 0.578 | relative viability ([8]; first compound 0.3162 µM): 0.456 | relative viability ([8]; first compound 1 µM): 0.526 | relative viability ([9]; first compound 0.01 µM): 0.698 | relative viability ([9]; first compound 0.03162 µM): 0.834 | relative viability ([9]; first compound 0.1 µM): 0.745 | relative viability ([9]; first compound 0.3162 µM): 0.888 | relative viability ([9]; first compound 1 µM): 0.755 | relative viability ([10]; first compound 0.01 µM): 0.529 | relative viability ([10]; first compound 0.03162 µM): 0.422 | relative viability ([10]; first compound 0.3162 µM): 0.513 | relative viability ([10]; first compound 1 µM): 0.442 | relative viability ([11]; first compound 0.01 µM): 0.765 | relative viability ([11]; first compound 0.03162 µM): 0.855 | relative viability ([11]; first compound 0.1 µM): 0.846 | relative viability ([11]; first compound 0.3162 µM): 0.757 | relative viability ([11]; first compound 1 µM): 0.778 | relative viability ([12]; first compound 0.01 µM): 0.648 | relative viability ([12]; first compound 0.03162 µM): 0.791 | relative viability ([12]; first compound 0.1 µM): 0.448 | relative viability ([12]; first compound 0.3162 µM): 0.901 | relative viability ([12]; first compound 1 µM): 0.663 | relative viability ([13]; first compound 0.01 µM): 0.339 | relative viability ([13]; first compound 0.03162 µM): 0.353 | relative viability ([13]; first compound 0.1 µM): 0.338 | relative viability ([13]; first compound 0.3162 µM): 0.307 | relative viability ([13]; first compound 1 µM): 0.318 | relative viability ([14]; first compound 0.01 µM): 0.289 | relative viability ([14]; first compound 0.03162 µM): 0.348 | relative viability ([14]; first compound 0.1 µM): 0.336 | relative viability ([14]; first compound 0.3162 µM): 0.335 | relative viability ([14]; first compound 1 µM): 0.35 | relative viability ([15]; first compound 0.01 µM): 0.197 | relative viability ([15]; first compound 0.03162 µM): 0.154 | relative viability ([15]; first compound 0.1 µM): 0.1 | relative viability ([15]; first compound 0.3162 µM): 0.154 | relative viability ([15]; first compound 1 µM): 0.137 | relative viability ([16]; first compound 0.01 µM): 0.587 | relative viability ([16]; first compound 0.03162 µM): 0.653 | relative viability ([16]; first compound 0.1 µM): 0.484 | relative viability ([16]; first compound 0.3162 µM): 0.623 | relative viability ([16]; first compound 1 µM): 0.627 | relative viability ([17]; first compound 0.01 µM): 0.209 | relative viability ([17]; first compound 0.03162 µM): 0.204 | relative viability ([17]; first compound 0.1 µM): 0.178 | relative viability ([17]; first compound 0.3162 µM): 0.242 | relative viability ([17]; first compound 1 µM): 0.191 | relative viability ([18]; first compound 0.01 µM): 0.372 | relative viability ([18]; first compound 0.03162 µM): 0.518 | relative viability ([18]; first compound 0.1 µM): 0.559 | relative viability ([18]; first compound 0.3162 µM): 0.574 | relative viability ([18]; first compound 1 µM): 0.517 | relative viability ([19]; first compound 0.01 µM): 0.937 | relative viability ([19]; first compound 0.03162 µM): 0.945 | relative viability ([19]; first compound 0.1 µM): 0.812 | relative viability ([19]; first compound 0.3162 µM): 0.759 | relative viability ([19]; first compound 1 µM): 0.799 | relative viability ([20]; first compound 0.01 µM): 0.427 | relative viability ([20]; first compound 0.03162 µM): 0.389 | relative viability ([20]; first compound 0.1 µM): 0.434 | relative viability ([20]; first compound 0.3162 µM): 0.472 | relative viability ([20]; first compound 1 µM): 0.388 | relative viability ([21]; first compound 0.01 µM): 0.755 | relative viability ([21]; first compound 0.03162 µM): 0.696 | relative viability ([21]; first compound 0.1 µM): 0.594 | relative viability ([21]; first compound 0.3162 µM): 0.649 | relative viability ([21]; first compound 1 µM): 0.697 | relative viability ([22]; first compound 0.01 µM): 0.306 | relative viability ([22]; first compound 0.03162 µM): 0.262 | relative viability ([22]; first compound 0.1 µM): 0.266 | relative viability ([22]; first compound 0.3162 µM): 0.275 | relative viability ([22]; first compound 1 µM): 0.245
